Drawing on ChEMBL document CHEMBL1129506, “2,4-Diarylpyrrolidine-3-carboxylic acids--potent ETA selective endothelin receptor antagonists. 1. Discovery of A-127722” (J Med Chem, 1996), this text covers IC50 for 30 molecules.

The IC50 is the concentration that inhibits the measured activity by half. A low value points to greater potency.

In assay [1] the target is T1, Endothelin receptor type B (Sus scrofa, UniProt P35463).
T1 sequence (P35463 whole entry): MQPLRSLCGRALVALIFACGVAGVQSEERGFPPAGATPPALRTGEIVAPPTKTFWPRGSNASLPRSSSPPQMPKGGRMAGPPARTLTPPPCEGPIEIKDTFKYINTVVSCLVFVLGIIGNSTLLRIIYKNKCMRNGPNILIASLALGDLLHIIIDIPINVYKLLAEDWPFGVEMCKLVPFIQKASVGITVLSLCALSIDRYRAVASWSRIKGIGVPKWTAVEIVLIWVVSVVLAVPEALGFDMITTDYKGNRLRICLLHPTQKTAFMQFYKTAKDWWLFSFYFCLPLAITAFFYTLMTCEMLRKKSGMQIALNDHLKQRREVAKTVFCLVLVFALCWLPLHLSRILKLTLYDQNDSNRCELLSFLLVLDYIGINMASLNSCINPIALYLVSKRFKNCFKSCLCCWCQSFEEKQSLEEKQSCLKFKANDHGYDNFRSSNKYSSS
Put plainly: Inhibitory activity measured against Endothelin B receptor binding to porcine cerebellum. The class given is tissue-based.

The target in assay [2] is T2, Endothelin-1 receptor (Rattus norvegicus, UniProt P26684).
T2 sequence (P26684 whole entry): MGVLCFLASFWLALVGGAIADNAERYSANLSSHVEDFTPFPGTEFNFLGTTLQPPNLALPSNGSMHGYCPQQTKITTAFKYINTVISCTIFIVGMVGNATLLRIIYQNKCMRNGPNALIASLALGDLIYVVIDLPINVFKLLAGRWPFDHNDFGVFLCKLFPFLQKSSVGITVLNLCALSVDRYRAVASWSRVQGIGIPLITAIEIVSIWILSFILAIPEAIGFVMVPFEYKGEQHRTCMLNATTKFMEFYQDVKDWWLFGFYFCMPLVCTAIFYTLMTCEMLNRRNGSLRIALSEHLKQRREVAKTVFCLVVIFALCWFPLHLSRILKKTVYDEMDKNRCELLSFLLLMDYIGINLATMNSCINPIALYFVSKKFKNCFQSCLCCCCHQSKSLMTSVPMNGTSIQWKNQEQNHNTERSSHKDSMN
In words: Inhibitory activity against the Endothelin A receptor of rat MMQ cells. The class given is cell-based.

Another assay addresses T3, Endothelin receptor (Rattus norvegicus, UniProt P26684+P21451).
T3 sequence (P26684 whole entry): T2 sequence (P26684 whole entry)
T3 sequence (P21451 whole entry): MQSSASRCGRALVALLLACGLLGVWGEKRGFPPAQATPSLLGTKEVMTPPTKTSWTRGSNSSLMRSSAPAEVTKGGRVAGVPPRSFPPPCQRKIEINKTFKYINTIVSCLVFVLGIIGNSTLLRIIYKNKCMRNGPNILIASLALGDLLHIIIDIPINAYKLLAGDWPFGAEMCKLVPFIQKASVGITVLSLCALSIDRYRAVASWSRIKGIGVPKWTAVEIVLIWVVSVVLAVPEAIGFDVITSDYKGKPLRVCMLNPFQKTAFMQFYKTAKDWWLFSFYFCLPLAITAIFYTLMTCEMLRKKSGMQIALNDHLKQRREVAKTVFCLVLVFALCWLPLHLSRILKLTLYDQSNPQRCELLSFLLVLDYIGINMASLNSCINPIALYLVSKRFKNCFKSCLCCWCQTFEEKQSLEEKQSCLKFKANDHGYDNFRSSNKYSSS
In words: Inhibition of phosphoinositol hydrolysis of MMQ cells. The assay is classed as functional, cell-based.

In assay [3] the target is T4, Endothelin receptor type B (Homo sapiens, UniProt P24530).
T4 sequence (P24530 whole entry): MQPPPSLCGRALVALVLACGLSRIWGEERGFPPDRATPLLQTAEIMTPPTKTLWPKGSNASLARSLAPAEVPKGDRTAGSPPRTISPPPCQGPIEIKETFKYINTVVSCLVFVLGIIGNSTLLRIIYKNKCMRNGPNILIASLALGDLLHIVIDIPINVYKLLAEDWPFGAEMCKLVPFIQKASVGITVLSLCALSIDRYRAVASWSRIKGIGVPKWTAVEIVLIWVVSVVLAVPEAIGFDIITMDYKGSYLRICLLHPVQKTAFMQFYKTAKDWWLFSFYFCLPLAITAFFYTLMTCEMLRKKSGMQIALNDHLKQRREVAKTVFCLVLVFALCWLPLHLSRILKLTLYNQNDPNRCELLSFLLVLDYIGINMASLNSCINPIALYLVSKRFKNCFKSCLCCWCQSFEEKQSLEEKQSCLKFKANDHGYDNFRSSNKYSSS
In words: Radioligand binding selectivity to human Endothelin B receptor in chinese hamster ovary cells. The class given is cell-based, CHO.

The target of assay [4] is T5, Endothelin-1 receptor (Homo sapiens, UniProt P25101).
T5 sequence (P25101 whole entry): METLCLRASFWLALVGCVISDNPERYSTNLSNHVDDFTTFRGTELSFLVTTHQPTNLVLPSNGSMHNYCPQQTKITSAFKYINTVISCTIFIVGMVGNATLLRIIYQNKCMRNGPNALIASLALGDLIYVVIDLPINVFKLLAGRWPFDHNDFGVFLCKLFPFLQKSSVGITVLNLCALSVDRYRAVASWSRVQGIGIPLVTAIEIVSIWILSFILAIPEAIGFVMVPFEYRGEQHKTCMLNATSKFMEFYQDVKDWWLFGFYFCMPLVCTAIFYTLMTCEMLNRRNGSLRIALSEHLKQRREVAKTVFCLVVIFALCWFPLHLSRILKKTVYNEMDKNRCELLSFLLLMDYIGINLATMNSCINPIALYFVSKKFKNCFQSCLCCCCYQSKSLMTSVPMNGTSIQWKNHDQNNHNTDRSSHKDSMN
Put plainly: Radioligand binding selectivity to human Endothelin A receptor in chinese hamster ovary cells. The class given is cell-based, CHO.

For the molecule `COc1ccc([C@@H]2[C@@H](C(=O)O)[C@H](c3ccc4c(c3)OCO4)CN2CCc2ccccn2)cc1`, the IC50 in assay [1] was 2360 nM; on Endothelin-1 receptor [2], 900 nM.
With `COc1ccc([C@@H]2[C@@H](C(=O)O)[C@H](c3ccc4c(c3)OCO4)CN2CC(=O)NCC(C)C)cc1`, the results for the half-inhibitory concentration (IC50) (in assay [1]; against Endothelin-1 receptor [2]; against Endothelin receptor) were 184 nM, 8.2 nM and 9.22 nM, respectively.
Turning to `COc1ccc([C@@H]2[C@@H](C(=O)O)[C@H](c3ccc4c(c3)OCO4)CN2CC(=O)N(CC(C)C)CC(C)C)cc1`, the IC50 in assay [1] was determined as 1820 nM; against Endothelin-1 receptor [2], 16.2 nM; against Endothelin receptor, 0.6 nM.
In the case of `CCCN(C)C(=O)CN1C[C@@H](c2ccc3c(c2)OCO3)[C@H](C(=O)O)[C@H]1c1ccc(OC)cc1`, the IC50 in assay [1] turned out to be 2900 nM; in assay [3], 4570 nM; against Endothelin-1 receptor [2], 6.63 nM; on Endothelin-1 receptor [4] it was 21.3 nM; at Endothelin receptor, 9.12 nM.
Take `CCCCCCN(C)C(=O)CN1C[C@@H](c2ccc3c(c2)OCO3)[C@H](C(=O)O)[C@H]1c1ccc(OC)cc1`: the results for the half-inhibitory concentration (IC50) (in assay [1]; on Endothelin-1 receptor [2]; against Endothelin receptor) were 404 nM, 7.61 nM and 1 nM, respectively.
For the molecule `CCCCNC(=O)N1C[C@@H](c2ccc3c(c2)OCO3)[C@H](C(=O)O)[C@H]1c1ccc(OC)cc1`, the half-inhibitory concentration (IC50) in assay [1] was 11100 nM; against Endothelin-1 receptor [2], 684 nM.
For `CCCCN(C)C(=O)CN1C[C@@H](c2ccc3c(c2)OCO3)[C@H](C(=O)O)[C@H]1c1ccc(OC)cc1`, the concentration for half-maximal inhibition (IC50) is 1390 nM in assay [1]; 1080 nM in assay [3]; 4.71 nM at Endothelin-1 receptor [2]; 4.88 nM on Endothelin-1 receptor [4]; 0.97 nM against Endothelin receptor.
Take `CCCCNC(=O)CN1C[C@@H](c2ccc3c(c2)OCO3)[C@H](C(=O)O)[C@H]1c1ccc(OC)cc1`: the IC50 in assay [1] is 1260 nM; on Endothelin-1 receptor [2] it was 43 nM; on Endothelin receptor, 10 nM.
Consider `CCCCN(CCCC)CCN1C[C@@H](c2ccc3c(c2)OCO3)[C@H](C(=O)O)[C@H]1c1ccc(OC)cc1`, for which the figures for the IC50 (in assay [1]; at Endothelin-1 receptor [2]) were 1590 nM and 794 nM, respectively.
Turning to `COc1ccc([C@@H]2[C@@H](C(=O)O)[C@H](c3ccc4c(c3)OCO4)CN2CC(=O)NC2CCCC2)cc1`, the figures for the half-maximal inhibitory concentration (IC50) (in assay [1]; at Endothelin-1 receptor [2]; against Endothelin receptor) were 307 nM, 16.2 nM and 23.8 nM, respectively.
As for `COc1ccc([C@@H]2[C@@H](C(=O)O)[C@H](c3ccc4c(c3)OCO4)CN2CCOCC(C)C)cc1`, the IC50 in assay [1] was determined as 8380 nM; on Endothelin-1 receptor [2] it was 437 nM.
Turning to `COc1ccc([C@@H]2[C@@H](C(=O)O)[C@H](c3ccc4c(c3)OCO4)CN2CC(=O)N(C)Cc2ccccc2)cc1`, the IC50 in assay [1] was 1680 nM; against Endothelin-1 receptor [2], 769 nM.
In the case of `COc1ccc([C@@H]2[C@@H](C(=O)O)[C@H](c3ccc4c(c3)OCO4)CN2C(=O)c2ccco2)cc1`, the IC50 in assay [1] is 40300 nM; against Endothelin-1 receptor [2], 5220 nM.
The matching figures for `COc1ccc([C@@H]2[C@@H](C(=O)O)[C@H](c3ccc4c(c3)OCO4)CN2CC(=O)N(CCC(C)C)CCC(C)C)cc1`: 41 nM and 0.43 nM.
For `CCCOCCN1C[C@@H](c2ccc3c(c2)OCO3)[C@H](C(=O)O)[C@H]1c1ccc(OC)cc1` the same measures were 4970 nM and 108 nM.
The matching figures for `CCCCS(=O)(=O)N1C[C@@H](c2ccc3c(c2)OCO3)[C@H](C(=O)O)[C@H]1c1ccc(OC)cc1`: 6180 nM and 1240 nM.
Turning to `COc1ccc([C@@H]2[C@@H](C(=O)O)[C@H](c3ccc4c(c3)OCO4)CN2CC(=O)N(C)C2CCCCC2)cc1`, the concentration for half-maximal inhibition (IC50) in assay [1] was 806 nM; against Endothelin-1 receptor [2] it was 23.8 nM; against Endothelin receptor it was 2.06 nM.
For the molecule `CCCCOCCN1C[C@@H](c2ccc3c(c2)OCO3)[C@H](C(=O)O)[C@H]1c1ccc(OC)cc1`, the 50% inhibitory concentration (IC50) was 3830 nM in assay [1] and 220 nM against Endothelin-1 receptor [2].
The matching figures for `COc1ccc([C@@H]2[C@@H](C(=O)O)[C@H](c3ccc4c(c3)OCO4)CN2Cc2ccc(F)cc2)cc1`: 7930 nM and 4320 nM.
Consider `CCCCCN(C)C(=O)CN1C[C@@H](c2ccc3c(c2)OCO3)[C@H](C(=O)O)[C@H]1c1ccc(OC)cc1`, for which the values for the IC50 (in assay [1]; against Endothelin-1 receptor [2]; on Endothelin receptor) were 624 nM, 5.78 nM and 5.64 nM, respectively.
Regarding `COc1ccc([C@@H]2[C@@H](C(=O)O)[C@H](c3ccc4c(c3)OCO4)CN2CC(=O)N(C)CC(C)C)cc1`, the IC50 worked out at 1050 nM in assay [1], 1.88 nM against Endothelin-1 receptor [2] and 0.28 nM at Endothelin receptor.
For `CCCN(CCC)C(=O)CCN1C[C@@H](c2ccc3c(c2)OCO3)[C@H](C(=O)O)[C@H]1c1ccc(OC)cc1`, the IC50 in assay [1] turned out to be 4200 nM; against Endothelin-1 receptor [2], 121 nM.
As for `CCCN(CCC)C(=O)CN1C[C@@H](c2ccc3c(c2)OCO3)[C@H](C(=O)O)[C@H]1c1ccc(OC)cc1`, the 50% inhibitory concentration (IC50) in assay [1] was found to be 598 nM; in assay [3], 397 nM; at Endothelin-1 receptor [4], 0.55 nM; at Endothelin receptor, 0.24 nM.
For the molecule `CCCNC(=O)CN1C[C@@H](c2ccc3c(c2)OCO3)[C@H](C(=O)O)[C@H]1c1ccc(OC)cc1`, the IC50 was 398 nM in assay [1]; 579 nM in assay [3]; 17.2 nM against Endothelin-1 receptor [2]; 45.3 nM at Endothelin-1 receptor [4]; 24.6 nM on Endothelin receptor.
As to `CCOCCN1C[C@@H](c2ccc3c(c2)OCO3)[C@H](C(=O)O)[C@H]1c1ccc(OC)cc1`, the concentration for half-maximal inhibition (IC50) in assay [1] turned out to be 9010 nM; against Endothelin-1 receptor [2] it was 520 nM.
Regarding `CCN(CC)C(=O)CN1C[C@@H](c2ccc3c(c2)OCO3)[C@H](C(=O)O)[C@H]1c1ccc(OC)cc1`, the results for the IC50 (in assay [1]; at Endothelin-1 receptor [2]; against Endothelin receptor) were 5250 nM, 32.9 nM and 2.26 nM, respectively.
For `COCCN(CCOC)C(=O)CN1C[C@@H](c2ccc3c(c2)OCO3)[C@H](C(=O)O)[C@H]1c1ccc(OC)cc1` the same measures were 1070 nM, 4.45 nM and 4.91 nM.
For `C=CCNC(=O)CN1C[C@@H](c2ccc3c(c2)OCO3)[C@H](C(=O)O)[C@H]1c1ccc(OC)cc1` the same measures were 889 nM, 34.2 nM and 16.5 nM.
`CCCCN(CCCC)C(=O)C(C)N1CC(c2ccc3c(c2)OCO3)C(C(=O)O)C1c1ccc(OC)cc1` (centres undefined): the results for the IC50 (in assay [1]; against Endothelin-1 receptor [2]; against Endothelin receptor) were 315 nM, 0.46 nM and 1.34 nM, respectively.
`CCCCN(CC)C(=O)CN1C[C@@H](c2ccc3c(c2)OCO3)[C@H](C(=O)O)[C@H]1c1ccc(OC)cc1`: the half-inhibitory concentration (IC50) in assay [1] was 531 nM; at Endothelin-1 receptor [2] it was 0.85 nM; against Endothelin receptor it was 0.33 nM.
